Source: paper PMC10574094, “Discovery of a SHP2 Degrader with In Vivo Anti-Tumor Activity” (Molecules, 2023)

Molecular target: T1, full-length SHP2 (1-528) (Homo sapiens, UniProt Q06124)
T1 construct: The SHP2 protein (Aa 1–528) was cloned into a pET-21a(+) vector; His; made in house; host or cells: E. coli BL21(DE3)
T1 sequence (Q06124 1-528): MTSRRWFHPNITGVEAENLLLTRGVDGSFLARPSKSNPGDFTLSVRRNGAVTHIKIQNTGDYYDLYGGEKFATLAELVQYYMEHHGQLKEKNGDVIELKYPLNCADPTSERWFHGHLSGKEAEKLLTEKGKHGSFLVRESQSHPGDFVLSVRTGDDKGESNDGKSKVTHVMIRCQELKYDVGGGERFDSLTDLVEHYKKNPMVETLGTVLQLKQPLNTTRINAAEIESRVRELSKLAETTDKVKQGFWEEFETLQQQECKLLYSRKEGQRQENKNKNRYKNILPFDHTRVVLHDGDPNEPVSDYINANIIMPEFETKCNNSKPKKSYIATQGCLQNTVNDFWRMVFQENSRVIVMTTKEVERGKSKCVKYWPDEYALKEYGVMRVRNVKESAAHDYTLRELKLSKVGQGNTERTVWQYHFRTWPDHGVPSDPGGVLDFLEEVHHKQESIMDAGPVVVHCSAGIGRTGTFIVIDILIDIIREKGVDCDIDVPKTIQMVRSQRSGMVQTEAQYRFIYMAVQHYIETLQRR
Assay: SHP2 allosteric inhibition assay (DiFMUP substrate)
Format: biochemical
Procedure: The SHP2 protein (Aa 1–528) was cloned into a pET-21a(+) vector. Bacterial BL21(DE3) (Novagen) was used as an expression host, and the induction of protein expression was carried out in LB media with 1 mM IPTG at 18 °C overnight. Cell pellets were stored at −80 °C for subsequent protein purification. Protein purification was conducted at 4 °C. Frozen cell pellets were lysed by sonication in 40 mL cold lysis buffer (50 mM Tris-HCl, pH 8.0, 150 mM NaCl, 5 mM imidazole, and 1 mM PMSF) per liter cell pellet. Cell lysates were clarified by centrifuging for 15 min at 6000 rpm. The supernatant was incubated with HisPur Ni-NTA resin (Thermo Scientific, Waltham, MA, USA) for 2 h, and then packed onto a column and washed with 50 resin volume of buffer A (50 mM Tris-HCl, pH 8.0, 500 mM NaCl, 5 mM imidazole). The HIS-tagged proteins were eluted with Buffer B (50 mM Tris-HCl, pH = 8.0, 500 mM NaCl, 300 mM imidazole,). Pooled HIS-protein-containing fractions were concentrated, loaded onto a HiLoad 26/600 Superdex 75 column (GE Healthcare Biosciences, Piscataway, NJ, USA), and eluted with storage buffer (50 mM Tris-HCl, pH 8.0, 150 mM NaCl, 1 mM DTT, 10% glycerol). Proteins used for inhibition assays were purified using Ni-NTA resin (Qiagen, Hilden, Germany) followed by size exclusion column chromatography (ÄKTA pure, Cytiva, Marlborough, MA, USA) and the purity was determined to be >95% by SDS-PAGE and Coomassie staining. The protein was aliquoted and stored at −80 °C.
The catalytic activity of SHP2 (1-528) was assayed with 6,8-Difluoro-4-Methylumbelliferyl Phosphate (DiFMUP, Invitrogen, cat# D6567) as a substrate in 3,3-Dimethylglutaric acid (DMG) buffer (50 mM DMG, pH 7.0, 1 mM EDTA, 18 mM NaCl, 0.01% Triton X-100) at 25 °C. To determine the IC50 values, the assays were performed in 96-well plates (Corning Costar 3915). Series diluted compounds were incubated with 0.5 nM of SHP2 and 0.5 μM of peptide IRS1_pY1172(dPEG8)pY1222 (sequence H2N-LN(pY)IDLDLV(dPEG8)LST(pY)ASINFQK-amide). After 30 min incubation at room temperature, the substrate DiFMUP was added to the reaction (200 μM final concentration, total reaction volume is […]) and incubated at 25 °C for 10 min. The reaction was then quenched by adding 40 μL of 160 μM bpV(Phen) (Sigma–Aldrich, cat# SML0889) solution. The fluorescence signal was monitored with a CLARIOstar Plus Microplate Spectrophotometer (BMG Labtech) using excitation and emission wavelengths of 340 and 450 nm, respectively. The inhibitordose-response curves were analyzed using normalized IC50 regression curve fitting with control-based normalization. Data were fitted using Prism GraphPad 9.2.0.

For `Cc1ncsc1-c1ccc([C@H](C)NC(=O)[C@@H]2C[C@@H](O)CN2C(=O)[C@@H](NC(=O)CCCCCCCCCN2CCN(C(=O)CCCCCC3(CN)CCN(c4cnc(Sc5cccc(Cl)c5Cl)c(N)n4)CC3)CC2)C(C)(C)C)cc1` [P9, (2S,4R)-1-((S)-2-(10-(4-(6-(1-(6-amino-5-((2,3-dichlorophenyl)thio)pyrazin-2-yl)-4-(aminomethyl)piperidin-4-yl)hexanoyl)piperazin-1-yl)decanamido)-3,3-dimethylbutanoyl)-4-hydroxy-N-((S)-1-(4-(4-methylthiazol-5-yl)phenyl)ethyl)pyrrolidine-2-carboxamide], the “Fold selectivity (SHP2)” value (Table S3, relative to SHP2) was 1 and the IC50 (full length SHP2, enzymatic assay) was 0.095 ± 0.0034 µM.
